# Measured values published in patent US20250223300A1, “MACROCYCLIC COMPOUND AND PHARMACEUTICAL COMPOSITION AND USE THEREOF” (BETTA PHARMACEUTICALS CO., LTD, priority 2022, published 2025).
# Assays:
# Pharmacokinetics in mice = format: in vivo, mouse; details: female BALB/c mice, 5 mg/kg orally by gavage, plasma
# Procedure: Mouse PK studies were performed using female BALB/c mice (20-30 g). Compounds were prepared and prepared immediately before use. Mice were administered intravenously or orally by gavage. Blood was collected from the mouse orbital venous plexus, and 100 μL of whole blood was transferred to a K2-EDTA tube at each time point.
# 1 mg/kg was given intravenously, and whole blood was collected at 0.083, 0.25, 0.5, 1, 2, 4, 6 and 24 h after administration; 5 mg/kg were given orally by gavage, and whole blood was collected at 0.25, 0.5, 1, 2, 4, 6, 24 h after administration in different batches, or the mice were killed at 2, 4 and 6 h to obtain brains. Whole blood samples were centrifuged and plasma was separated; brain tissue samples were homogenized by adding 4 times the volume of buffer, and the plasma and brain tissue samples were stored in a −80° C. refrigerator for later use. After the above plasma and brain tissue samples were precipitated with acetonitrile for protein, the supernatant was taken and mixed with water in a 1:1 ratio, and 10 μL was taken for LC-MS/MS detection.
# Pharmacokinetics in rats = format: in vivo, rat; details: male SD rats, 5 mg/kg orally by gavage, plasma
# Procedure: Male SD rats (200-300 g) were used for rat PK studies. Compounds were prepared and prepared immediately before use. Rats were administered intravenously or orally by gavage. Blood was collected from the rats through the orbital venous plexus, and 100 μL whole blood was collected into K2-EDTA tubes at each time point.
# 1 mg/kg was given intravenously, and whole blood was collected at 0.083, 0,25, $0.5, 1, 2, 4, 7, 24, 48, and 72 h after administration; 5 mg/kg were given orally by gavage, and whole blood was collected at 0.25, 0.5, 1, 2, 4, 7, 24, 48, and 72 h after administration in different batches, or the rats were killed at 4 and 24 h to obtain brains. The brain tissue samples were homogenized by adding 4 times the volume of buffer, and the whole blood and brain tissue samples were stored in a −80° C. refrigerator for later use. After the above whole blood and brain tissue samples were precipitated with acetonitrile for protein, the supernatant was taken and mixed with water in a ratio of 1:2, and 10 μL was taken for LC-MS/MS detection.
# [1] = system: A431 cell carrying EGFR WT; experiment: Cell proliferation inhibitory activity assay, A431; format: cell-based; details: cell proliferation inhibition, 72 hours, luminescence
# Procedure: (§1) Suspension cells Ba/F3 (EGFR. Dell9/T790M/C797S), Ba/F3 (EGFR L858R/T790M/C797S), Ba/F3 (EGFR Del19/C797S), and Ba/F3 (EGFR L858R/C797S) overexpressing different EGFR mutations were cultured in PRMI 1640 containing 10% FBS and 1% PS, and adherent cells A431 carrying EGFR WT were cultured in DMEM containing 10% FBS and 1% PS. The experimental steps for compound activity detection are as follows: • (1) Take adherent cells in the logarithmic growth phase, digest them with trypsin count them, and then inoculate them into a 96-well plate at a certain density. Incubate them overnight at 37° C. and 5% CO2 to allow them to adhere.
# (§2) Y=minimum+([…])/(1+10^((Log IC50−X)*slope)); • X: logarithm of compound concentration; Y: cell survival inhibition rate.
# Ba/F3 (EGFR L858R/C797S) = Ba/F3 (EGFR L858R/C797S) (Homo sapiens, UniProt P00533, C797S/L858R, cells depend on it); experiment: Cell proliferation inhibitory activity assay, Ba/F3 EGFR L858R/C797S; format: cell-based; details: cell proliferation inhibition, 72 hours, luminescence; read-out: Ba/F3 cells overexpressing different EGFR mutations IC50 (nM) L858R/C797S
# Procedure: as §1, §2
# Ba/F3 (EGFR Del19/C797S) = Ba/F3 (EGFR Del19/C797S) (Homo sapiens, UniProt P00533, C797S, cells depend on it, form not given); experiment: Cell proliferation inhibitory activity assay, Ba/F3 EGFR Del19/C797S; format: cell-based; details: cell proliferation inhibition, 72 hours, luminescence; read-out: Ba/F3 cells overexpressing different EGFR mutations IC50 (nM) Del19/C797S
# Procedure: as §1, §2
# [2] = target: Ba/F3 cells overexpressing EGFR Del19/T790M/C797S (Homo sapiens, UniProt P00533, T790M/C797S, cells depend on it, form not given); experiment: Cell proliferation inhibitory activity assay, Ba/F3 EGFR Del19/T790M/C797S; format: cell-based; details: cell proliferation inhibition, 72 hours, luminescence; read-out: Ba/F3 cells overexpressing different EGFR mutations IC50 (nM) Del19/T790M/C797S
# Procedure: as §1, §2
# [3] = target: Ba/F3 (EGFR L858R/T790M/C797S) (Homo sapiens, UniProt P00533, T790M/C797S/L858R, cells depend on it); experiment: Cell proliferation inhibitory activity assay, Ba/F3 EGFR L858R/T790M/C797S; format: cell-based; details: cell proliferation inhibition, 72 hours, luminescence; read-out: Ba/F3 cells overexpressing different EGFR mutations IC50 (nM) L858R/T790M/C797S
# Procedure: as §1, §2
# [4] = Metabolic stability of liver microsomes, human; format: in vitro ADME; details: NADPH, 0-45 min; for microsomal CLint: read-out: CLint(μL/min/mg protein) Human
# Procedure: (§3) The liver microsomes of human, rat, mouse and dog were used to study the metabolic stability of the compounds. The specific experimental steps are as follows: • (1) Add 40 μL MgCl2 and 306 μL PBS to each well of a 96-well plate, and then add 4 μL compound, with a final DMSO concentration of ≤0.5%. Set up a blank well without compound; • (2) Add 10 μL of 20 mg/mL liver microsomes to each well, incubate at 37° C. for 10 min; • (3) Add 40 μL NADPH working solution to each well to start the reaction, and set up a control well without NADPH; • (4) At 0, 5, 15, and 45 min after the start of the reaction, 50 μL of sample was taken out, the termination solution was added, and the mixture was shaken for 5 min. • (5) The samples were then centrifuged at 3,220 g for 10 min, and 50 μL of the supernatant was removed and was added 200 μL water for dilution and analysis by LC-MS/MS.
# (§4) The in vitro intrinsic clearance (in vitro CLint, in μL/min/mg) was calculated from the in vitro half-life t1/2 (minutes) using the following equation (mean of replicates):
# (§5) In vitro clearance rate=0.693/in vitro half-life t1/2×[incubation volume (μL)/(protein amount (mg)]
# [5] = Metabolic stability of liver microsomes, mouse; format: in vitro ADME; details: NADPH, 0-45 min; for microsomal CLint: read-out: CLint(μL/min/mg protein) Mouse
# Procedure: as §3, §4, §5
# [6] = Metabolic stability of liver microsomes, rat; format: in vitro ADME; details: NADPH, 0-45 min; for microsomal CLint: read-out: CLint(μL/min/mg protein) Rat
# Procedure: as §3, §4, §5
"AUC(0-t) (Pharmacokinetics in rats; rat, po)","half-life (Pharmacokinetics in rats; rat, po)","Cmax (Pharmacokinetics in rats; rat, po, read-out: Cmax)","IC50 ([1]; Homo sapiens, A-431)",GI50 (Ba/F3 (EGFR L858R/C797S)),GI50 (Ba/F3 (EGFR Del19/C797S)),GI50 [2],GI50 [3],Compound,further results
96 ng·h/mL,2.94 h,10.5 ng/mL,–,–,–,–,–,"Cc1cc2cc(n1)-c1cnn(C)c1OCCC[C@@H](C)CN1/C(=N/C2=O)Nc2ccc(CN3CCN(C)CC3)cc21 [compound 1, reference compound]","AUC(0-t) (Pharmacokinetics in mice; mouse, po): 361 ng·h/mL; half-life (Pharmacokinetics in mice; mouse, po): 4.22 h; Cmax (Pharmacokinetics in mice; mouse, po, read-out: Cmax): 32.8 ng/mL"
132 ng·h/mL,–,27.3 ng/mL,–,–,–,–,–,"Cc1cc2cc(n1)-c1cnn(C)c1OCCC[C@@H](C)CN1/C(=N/C2=O)Nc2ccc(CN3CCC4(CC3)COC4)cc21 [compound 2, reference compound]",–
917 ng·h/mL,12.4 h,57.5 ng/mL,700 nM,4.7 nM,0.5 nM,0.8 nM,1.6 nM,"Cc1cc2cc(n1)-c1cnccc1OCCCCCn1c(nc3ccc(N4CCC5(CC4)CCN(C4COC4)CC5)cc31)NC2=O [Example 52, 2^6-methyl-5^6-(9-(oxetan-3-yl)-3,9-diazaspiro [5.5]undecan-3-yl)-5^1H-11-oxa-4-aza-5(2,1)-benzo[d] imidazola-1(3,4),2(2,4)-dipyridinacyclo-undecaphan-3-one]","AUC(0-t) (Pharmacokinetics in mice; mouse, po): 3460 ng·h/mL; half-life (Pharmacokinetics in mice; mouse, po): 20.1 h; Cmax (Pharmacokinetics in mice; mouse, po, read-out: Cmax): 215 ng/mL"
–,–,–,–,0.34 nM,0.09 nM,0.14 nM,0.2 nM,"5^6-(9-(3- methoxy- propyl)-3,9- diazaspiro[5.5] undecan-3-yl)- 2^6-methyl-5^1H- 11-oxa-4-aza- 5(2,1)-benzo[d] imidazola- 1(34),2(2,4)- dipyridinacyclo- undecaphan- 3-one [Example 76]",IC50 [1]: 586 nM; CLint(μL/min/mg protein) Human [4]: 8 μL/min/mg protein; CLint(μL/min/mg protein) Mouse [5]: 23 μL/min/mg protein; CLint(μL/min/mg protein) Rat [6]: 15.6 μL/min/mg protein
–,–,–,426 nM,0.18 nM,0.23 nM,0.36 nM,0.36 nM,"COCCCN1CCC2(CC1)CCN(c1ccc3nc4n(c3c1)C[C@H](C)CCCOc1ccncc1-c1cc(cc(C)n1)C(=O)N4)CC2 [Example 77, (R)-5^6-(9-(3-methoxypropyl)-3,9-diazaspiro [5.5]undecan-3-yl)-2^6,7-dimethyl-5^1H-11-oxa-4-aza-5(2,1)-benzo [d]imidazola-1(3,4),2(2,4)-dipyridinacyclo-undecaphan-3-one]",microsomal CLint [4]: 17 µL/min/mg; microsomal CLint [5]: 25.1 µL/min/mg; microsomal CLint [6]: 6.7 µL/min/mg
1840 ng·h/mL,18.8 h,116 ng/mL,1750 nM,5.3 nM,0.1 nM,1.4 nM,4.3 nM,"Cc1cc2cc(n1)-c1cnc(F)cc1OCCC[C@@H](C)Cn1c(nc3ccc(N4CCC5(CC4)CCN(C4COC4)CC5)cc31)NC2=O [Example 81, (R)-1^6-fluoro-2^6,7-dimethyl-5^6-(9-(oxetan-3-yl)-3,9-diazaspiro [5.5]undecan-3-yl)-5^1H-11-oxa-4-aza-5(2,1)-benzo[d] imidazola-1(3,4),2(2,4)-dipyridinacyclo-undecaphan-3-one]",–
–,–,–,–,5.7 nM,0.45 nM,2.4 nM,3.7 nM,"Cc1cc2cc(n1)-c1cnccc1OCCCCCn1c(nc3cc(C)c(N4CCC5(CCN(CCF)CC5)CC4)cc31)NC2=O [Example 59, 5^6-(9-(2-fluoroethyl)-3,9-diazaspiro[5.5]undecan-3-yl)-2^6,5^5-dimethyl-5^1H-11-oxa-4-aza-5(2,1)-benzo [d]imidazola-1(3,4),2(2,4)-dipyridinacyclo-undecaphan-3-one]",microsomal CLint [4]: 4.82 µL/min/mg; microsomal CLint [5]: 8.93 µL/min/mg; microsomal CLint [6]: 23.3 µL/min/mg
–,–,–,733 nM,31 nM,4 nM,4.2 nM,12 nM,"COC(C)(C)CC(C)N1CCC2(CCN(c3ccc4nc5n(c4c3)CCCCCOc3ccncc3-c3cc(cc(C)n3)C(=O)N5)CC2)CC1 (stereo not shown) [Example 90, 5^6-(9-(4-methoxy-4-methylpentan-2-yl)-3,9-diazaspiro[5.5]undecan-3-yl)-2^6-methyl-5^1H-11-oxa-4-aza-5(2,1)-benzo[d] imidazola-1(3,4),2(2,4)-dipyridinacyclo-undecaphan-3-one]",–
–,–,–,–,5.2 nM,0.64 nM,1.7 nM,3.4 nM,"5^6-(9-((2R,6S)-2,6- dimethyl- tetrahydro-2H- pyran-4-yl)-3,9- diazaspiro[5.5] undecan-3-yl)- 2^6-methyl-5^1H- 11-oxa-4-aza- 5(2,1)-benzo [d]imidazola- 1(3,4),2(2,4)- dipyridinacyclo- undecaphan- 3-one [Example 91]",IC50 [1]: 759 nM; AUClast (Pharmacokinetics in mice): 1495 ng·h/mL; Cmax (Pharmacokinetics in mice): 41.9 ng/mL; AUClast (Pharmacokinetics in rats): 1611 ng·h/mL; Cmax (Pharmacokinetics in rats): 42.5 ng/mL; T1/2 (Pharmacokinetics in rats): 26.4 h

Compound,"AUC(0-t) (Pharmacokinetics in rats; rat, po)","half-life (Pharmacokinetics in rats; rat, po)","Cmax (Pharmacokinetics in rats; rat, po, read-out: Cmax)","IC50 ([1]; Homo sapiens, A-431)",GI50 (Ba/F3 (EGFR L858R/C797S)),GI50 (Ba/F3 (EGFR Del19/C797S)),GI50 [2],GI50 [3],further results
"CO[C@@H]1CCC(N2CCC3(CCN(c4ccc5nc6n(c5c4)CCCCCOc4ccncc4-c4cc(cc(C)n4)C(=O)N6)CC3)CC2)C[C@@H]1F (stereo partly drawn) [Example 15, 5^6-(9-((3S,4R)-3-fluoro-4-methoxypiperidin-1-yl)-3-azaspiro[5.5]undecan-3-yl)-2^6-methyl-5^1H-11-oxa-4-aza-5(2,1)-benzo[d]imidazola-1(3,4),2(2,4) -dipyridinacycloundecaphan-3-one]",3390 ng·h/mL,–,104 ng/mL,–,–,–,–,–,–
